For this test, the target named is Serotonin 5-HT7 Receptors (Homo sapiens (Human), UniProt P34969). Briefly: Radiolabel Binding Studies for Serotonin 5-HT7 Receptors, Method 2 ([3H]-5HT competition; Ki and percent inhibition at 10 μM). The settings on record: for IC50: radiolabel binding, 5HT7 receptors; for inhibition at 10 µM: @ 10 μM single concentration, read-out: 5-HT7 percent inhibition of radioligand binding. The protocol: Radiolabel Binding Studies for Serotonin 5-HT7 Receptors, Method 2:
A solution of the compound of the disclosure to be tested is prepared as a 1-mg/ml stock in Assay Buffer or DMSO according to its solubility. A similar stock of the reference compound chlorpromazine is also prepared as a positive control. Eleven dilutions (5×assay concentration) of the compound of the disclosure and chlorpromazine are prepared in the Assay Buffer by serial dilution to yield final corresponding assay concentrations ranging from 10 pM to 10 μM.
A stock concentration of 5 nM [^3H]-5-Hydroxytryptamine ([^3H]-5HT) is prepared in 50 mM Tris-HCl, 10 mM MgCl2, 1 mM EDTA, pH 7.4 (Assay Buffer). Aliquots (50 μl) of radioligand are dispensed into the wells of a 96-well plate containing […] of Assay Buffer. Duplicate 50-μl aliquots of the compound of the disclosure test and chlorpromazine positive control reference compound serial dilutions are added.
Membrane fractions of cells expressing recombinant 5HT7 receptors (50 μL) are dispensed into each well. The membranes are prepared from stably transfected cell lines expressing 5HT7 receptors cultured on 10-cm plates by harvesting PBS-rinsed monolayers, resuspending and lysing in chilled, hypotonic 50 mM Tris-HCl, pH 7.4, centrifuging at 20,000×g, decanting the supernatant and storing at −80° C.; the membrane preparations are resuspended in 3 ml of chilled Assay Buffer and homogenized by several passages through a 26 gauge needle before using in the assay.
The 250-μl reactions are incubated at room temperature for 1.5 hours, then harvested by rapid filtration onto 0.3% polyethyleneimine-treated, 96-well filter mats using a 96-well Filtermate harvester. Four rapid 500-μl washes are performed with chilled Assay Buffer to reduce non-specific binding. The filter mats are dried, then scintillant is added to the filters and the radioactivity retained on the filters is counted in a Microbeta scintillation counter.
Raw data (dpm) representing total radioligand binding (i.e., specific+non-specific binding) are plotted as a function of the logarithm of the molar concentration of the competitor (i.e., test or reference compound). Non-linear regression of the normalized (i.e., percent radioligand binding compared to that observed in the absence of test or reference compound) raw data is performed in Prism 4.0 (GraphPad Software) using the built-in three parameter logistic model describing ligand competition binding to radioligand-labeled sites: y=bottom+[(top−bottom)/(1+10x−log IC50)] where bottom equals the residual radioligand binding measured in the presence of 10 μM reference compound (i.e., non-specific binding) and top equals the total radioligand binding observed in the absence of competitor. The log IC50 (i.e., the log of the ligand concentration that reduces radioligand binding by 50%) is thus estimated from the data and used to obtain the Ki by applying the Cheng-Prusoff approximation: Ki=IC50/(1+[ligand]/KD) where [ligand] equals the assay radioligand concentration and KD equals the affinity constant of the radioligand for the target receptor.
Compounds of the disclosure are also screened at a single concentration of 10 μM using the same method described for the Radiolabel Binding Studies for Serotonin 5HT7 receptors to determine the percent inhibition of [^3H]-5HT binding.

A word on the IC50: it is the concentration that inhibits the measured activity by half. A high value points to weaker potency. Usually inhibition stands for how much of the control response was suppressed.

Chain of Serotonin 5-HT7 Receptors (P34969 whole entry): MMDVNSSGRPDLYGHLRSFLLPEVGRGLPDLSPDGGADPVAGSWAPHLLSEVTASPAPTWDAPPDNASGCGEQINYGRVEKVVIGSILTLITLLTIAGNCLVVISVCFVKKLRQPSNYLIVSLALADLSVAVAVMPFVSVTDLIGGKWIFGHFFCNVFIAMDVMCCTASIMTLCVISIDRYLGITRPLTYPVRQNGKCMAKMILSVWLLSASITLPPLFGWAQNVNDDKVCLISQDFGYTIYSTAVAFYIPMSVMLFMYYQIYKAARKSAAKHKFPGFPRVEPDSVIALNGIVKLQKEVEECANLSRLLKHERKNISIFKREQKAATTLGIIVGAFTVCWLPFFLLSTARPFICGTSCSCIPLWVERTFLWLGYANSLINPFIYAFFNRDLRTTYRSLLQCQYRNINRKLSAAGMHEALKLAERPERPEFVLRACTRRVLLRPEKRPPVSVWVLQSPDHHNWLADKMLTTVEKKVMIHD

The compound `CCC1(CC)CC(CCN2CC3CN(c4ccccc4)CC3C2)OC1=O` (stereo not shown) [Entry 1] displayed an IC50 of 64 nM.
With `CCC1(CC)CC(CCN2CC3CN(c4ccccc4C(C)C)CC3C2)OC1=O` (stereo not shown) [Entry 2], the IC50 was 277 nM.
As for `CC(C)c1ccccc1N1CC2CN(CCC3CC4(CCCCC4)C(=O)O3)CC2C1` (stereo not shown) [Entry 3], the IC50 came out at 268 nM.
On the same count and under the same terms, for `CCC1(CC)CC(CCN2CC3CN(c4ccccc4C)CC3C2)OC1=O` (stereo not shown) [Entry 4] the value was 179 nM.
On the same count and under the same terms, in the case of `CCC1(CC)CC(CCN2CC3CN(c4cccc(C)c4)CC3C2)OC1=O` (stereo not shown) [Entry 5] it was 104 nM.
For `CCC1(CC)CC(CCN2CC3CN(c4ccc(C)cc4)CC3C2)OC1=O` (stereo not shown) [Entry 6], the inhibition at 10 µM was found to be 44.5%.
In the case of `CCC1(CC)CC(CCN2CC3CN(c4ccccc4C#N)CC3C2)OC1=O` (stereo not shown) [Entry 7], the IC50 was determined as 8.9 nM.
With `CCC1(CC)CC(CCN2CC3CN(c4cccc(C#N)c4)CC3C2)OC1=O` (stereo not shown) [Entry 8], the inhibition at 10 µM stood at 48.9%.
As for `CCC1(CC)CC(CCN2CC3CN(c4ccc(C#N)cc4)CC3C2)OC1=O` (stereo not shown) [Entry 9], the inhibition at 10 µM was 26.3%.
Consider `CCC1(CC)CC(CCN2CC3CN(c4ccccc4OC)CC3C2)OC1=O` (stereo not shown) [Entry 10], for which the IC50 is 151 nM. In other words, the sub-micromolar range.
Same read-out and setting: in the case of `CCC1(CC)CC(CCN2CC3CN(c4cccc(OC)c4)CC3C2)OC1=O` (stereo not shown) [Entry 11] it was 911 nM.
With `CCC1(CC)CC(CCN2CC3CN(c4ccc(OC)cc4)CC3C2)OC1=O` (stereo not shown) [Entry 12], the inhibition at 10 µM was 24.5%.
In turn, `CCC1(CC)CC(CCN2CC3CN(c4ccccc4O)CC3C2)OC1=O` (stereo not shown) [Entry 13] displayed a half-inhibitory concentration (IC50) of 227 nM.
On to `CCC1(CC)CC(CCN2CC3CN(c4cccc(O)c4)CC3C2)OC1=O` (stereo not shown) [Entry 14], for which the inhibition at 10 µM was determined as 39.8%.
Turning to `CCC1(CC)CC(CCN2CC3CN(c4ccc(O)cc4)CC3C2)OC1=O` (stereo not shown) [Entry 15], the IC50 was found to be 130 nM.
In the case of `CCC1(CC)CC(CCN2CC3CN(c4ccccc4N4CCOCC4)CC3C2)OC1=O` (stereo not shown) [Entry 16], the IC50 was 160 nM.

For the origin of these results see patent US11220505B2, “5-hydroxytryptamine receptor 7 modulators and their use as therapeutic agents” (Temple University-Of the Commonwealth System of Higher …, priority 2017, dated 2022).
